Laboratory results: ChEMBL document CHEMBL3885861, “Open TG-GATES”

Species: Rattus norvegicus
Test: Open TG-GATES - Regimen: Single
Assay type: toxicity, organism-based, Sprague-Dawley
Design: regimen Single, gender Male, age 6 weeks
Conditions: in vivo, po, 0 mg/kg, route gavage, dose level Control; for APTT / Bas / Eos / Fbg / Hb / Ht / Lym / MCH / MCHC / MCV / Mono / Neu / PT / Plat / RBC / Ret / WBC: tissue Blood; for KIDNEY_L / KIDNEY_R / KIDNEY_TOTAL: tissue Kidney; for LIVER: tissue Liver; for A/G / ALP / ALT / AST / BUN / CRE / Ca / Cl / DBIL / GLC / IP / K / LDH / Na / PL / RALB / TBIL / TC / TG / TP / gamma-GTP: tissue Plasma

Structure (SMILES): ClC(Cl)(Cl)Cl [CARBON TETRACHLORIDE]
- TERMINAL_BW (3 h): 204.7 g
- APTT (3 h): 16.7 s
- Bas (3 h): 0%
- Eos (3 h): 1%
- Fbg (3 h): 245 mg/dL
- Hb (3 h): 13 g/dL
- Ht (3 h): 37.3%
- Lym (3 h): 73.8%
- MCH (3 h): 21.7 pg
- MCHC (3 h): 34.8%
- MCV (3 h): 62.3 fL
- Mono (3 h): 3.6%
- Neu (3 h): 21.6%
- PT (3 h): 12 s
- Plat (3 h): 132.6 x10_4/uL
- RBC (3 h): 599 x10_4/ul
- Ret (3 h): 8.6%
- WBC (3 h): 103.4 x10_2/uL
- KIDNEY_L (3 h): 0.9 g
- KIDNEY_R (3 h): 0.9 g
- KIDNEY_TOTAL (3 h): 1.8 g
- LIVER (3 h): 10 g
- A/G (3 h): 1.6
- ALP (3 h): 947 IU/L
- ALT (3 h): 37.2 IU/L
- AST (3 h): 66.6 IU/L
- BUN (3 h): 13.2 mg/dL
- CRE (3 h): 0.4 mg/dL
- Ca (3 h): 11 mg/dL
- Cl (3 h): 104.2 meq/L
- DBIL (3 h): 0.3 mg/dL
- GLC (3 h): 207 mg/dL
- IP (3 h): 9 mg/dL
- K (3 h): 3.9 meq/L
- LDH (3 h): 209 IU/L
- Na (3 h): 139.6 meq/L
- PL (3 h): 179.8 mg/dL
- RALB (3 h): 3.4 g/dL
- TBIL (3 h): 0.3 mg/dL
- TC (3 h): 87.2 mg/dL
- TG (3 h): 159.6 mg/dL
- TP (3 h): 5.6 g/dL
- gamma-GTP (3 h): 0.6 IU/L
- TERMINAL_BW (6 h): 204.3 g
- APTT (6 h): 17 s
- Bas (6 h): 0%
- Eos (6 h): 0.8%
- Fbg (6 h): 230.8 mg/dL
- Hb (6 h): 13 g/dL
- Ht (6 h): 37.6%
- Lym (6 h): 69%
- MCH (6 h): 22 pg
- MCHC (6 h): 34.6%
- MCV (6 h): 63.4 fL
- Mono (6 h): 3.4%
- Neu (6 h): 26.6%
- PT (6 h): 12.1 s
- Plat (6 h): 140.4 x10_4/uL
- RBC (6 h): 593.6 x10_4/ul
- Ret (6 h): 8.9%
- WBC (6 h): 98.9 x10_2/uL
- KIDNEY_L (6 h): 0.9 g
- KIDNEY_R (6 h): 0.9 g
- KIDNEY_TOTAL (6 h): 1.8 g
- LIVER (6 h): 9 g
- A/G (6 h): 1.5
- ALP (6 h): 1166.6 IU/L
- ALT (6 h): 31.4 IU/L
- AST (6 h): 62.8 IU/L
- BUN (6 h): 9.6 mg/dL
- CRE (6 h): 0.4 mg/dL
- Ca (6 h): 10.7 mg/dL
- Cl (6 h): 104 meq/L
- DBIL (6 h): 0.094 mg/dL
- GLC (6 h): 196.8 mg/dL
- IP (6 h): 9.8 mg/dL
- K (6 h): 4.1 meq/L
- LDH (6 h): 189.2 IU/L
- Na (6 h): 139.8 meq/L
- PL (6 h): 161.4 mg/dL
- RALB (6 h): 3.3 g/dL
- TBIL (6 h): 0.2 mg/dL
- TC (6 h): 89.4 mg/dL
- TG (6 h): 61 mg/dL
- TP (6 h): 5.4 g/dL
- gamma-GTP (6 h): 1 IU/L
- TERMINAL_BW (9 h): 201.8 g
- APTT (9 h): 16.1 s
- Bas (9 h): 0%
- Eos (9 h): 0.8%
- Fbg (9 h): 222.4 mg/dL
- Hb (9 h): 12.6 g/dL
- Ht (9 h): 36.6%
- Lym (9 h): 76.6%
- MCH (9 h): 22.2 pg
- MCHC (9 h): 34.6%
- MCV (9 h): 64.2 fL
- Mono (9 h): 2.2%
- Neu (9 h): 20%
- PT (9 h): 12.2 s
- Plat (9 h): 131.9 x10_4/uL
- RBC (9 h): 570 x10_4/ul
- Ret (9 h): 9.7%
- WBC (9 h): 82.1 x10_2/uL
- KIDNEY_L (9 h): 0.9 g
- KIDNEY_R (9 h): 0.9 g
- KIDNEY_TOTAL (9 h): 1.8 g
- LIVER (9 h): 8.6 g
- A/G (9 h): 1.4
- ALP (9 h): 961.6 IU/L
- ALT (9 h): 30 IU/L
- AST (9 h): 62.6 IU/L
- BUN (9 h): 11.2 mg/dL
- CRE (9 h): 0.4 mg/dL
- Ca (9 h): 10.3 mg/dL
- Cl (9 h): 102.4 meq/L
- DBIL (9 h): 0.066 mg/dL
- GLC (9 h): 207.2 mg/dL
- IP (9 h): 10.7 mg/dL
- K (9 h): 3.7 meq/L
- LDH (9 h): 163 IU/L
- Na (9 h): 139.2 meq/L
- PL (9 h): 129.8 mg/dL
- RALB (9 h): 3.1 g/dL
- TBIL (9 h): 0.1 mg/dL
- TC (9 h): 69.8 mg/dL
- TG (9 h): 35.6 mg/dL
- TP (9 h): 5.4 g/dL
- gamma-GTP (9 h): 1.2 IU/L
- TERMINAL_BW (24 h): 215.9 g
- APTT (24 h): 18.1 s
- Bas (24 h): 0.2%
- Eos (24 h): 1%
- Fbg (24 h): 256.8 mg/dL
- Hb (24 h): 13.7 g/dL
- Ht (24 h): 38.8%
- Lym (24 h): 82%
- MCH (24 h): 22.5 pg
- MCHC (24 h): 35.3%
- MCV (24 h): 63.8 fL
- Mono (24 h): 2.4%
- Neu (24 h): 14.2%
- PT (24 h): 11.8 s
- Plat (24 h): 140.8 x10_4/uL
- RBC (24 h): 607.2 x10_4/ul
- Ret (24 h): 8%
- WBC (24 h): 105.9 x10_2/uL
- KIDNEY_L (24 h): 0.9 g
- KIDNEY_R (24 h): 0.9 g
- KIDNEY_TOTAL (24 h): 1.9 g
- LIVER (24 h): 10.6 g
- A/G (24 h): 1.6
- ALP (24 h): 1231.6 IU/L
- ALT (24 h): 37.2 IU/L
- AST (24 h): 66.6 IU/L
- BUN (24 h): 15 mg/dL
- CRE (24 h): 0.4 mg/dL
- Ca (24 h): 10.9 mg/dL
- Cl (24 h): 103 meq/L
- DBIL (24 h): 0.088 mg/dL
- GLC (24 h): 202.2 mg/dL
- IP (24 h): 7.4 mg/dL
- K (24 h): 3.8 meq/L
- LDH (24 h): 186.2 IU/L
- Na (24 h): 140 meq/L
- PL (24 h): 156.2 mg/dL
- RALB (24 h): 3.5 g/dL
- TBIL (24 h): 0.2 mg/dL
- TC (24 h): 79.2 mg/dL
- TG (24 h): 100 mg/dL
- TP (24 h): 5.7 g/dL
- gamma-GTP (24 h): 1.2 IU/L
